# Data published in patent US9439961B2, “Pharmaceutical composition for treating ischemic events” (Niigata University, priority 2009, dated 2016).
# Columns and labels:
# [1] = system: cerebral infarction rat model; test: Cerebral infarction rat model (thrombus injection): infarct and edema volume of TTC-stained cerebral coronal section; format: in vivo, Sprague-Dawley rats
# Source text: Sprague-Dawley rats (male, 8 weeks old, obtained from Charles River Laboratories Japan, Inc.) were used to produce cerebral infarction rat models.
# (§1) In the present examples, a cerebral infarction rat model shown in FIG. 1B was produced in order to realize a state where cerebral hemorrhage concomitantly occurs as a result of administration of a thrombolytic agent after the therapeutic time window of the thrombolytic therapy. A thrombus was formed by coagulating rat's autologous blood and thrombin as a gel in a polyethylene tube catheter having a diameter of 0.35 mm (PE-50, product of Becton, Dickinson and Company). The formed thrombus was left to stand overnight and then cut to have a length of 1 mm Using the catheter, the thrombus was injected from the external carotid artery (ECA) 1 to the middle cerebral artery (MCA) 2 of the rat under anesthesia with halothane at 1% by mass to 1.5% by mass. Thereafter, the thus-treated rat was measured for cerebral blood flow (CBF) using a laser Doppler flowmetry (AFL21, product of ADVANCE Co., Ltd., Tokyo) before and 30 min or 24 hours after injection of the thrombus.
# In the thrombolytic therapy for the cerebral infarction rat models, t-PA serving as a thrombolytic agent (alteplase, product of Mitsubishi Tanabe Pharma Corporation) was injected for 30 min to the femoral vein of each cerebral infarction rat model 1 hour or 4 hours after the injection of the thrombus (10 mg/kg, 10% bolus administration and 90% drip infusion).
# Twenty-four hours after the injection of the thrombus, halothane was excessively administered to the rats for euthanasia which were then perfused with PBS, to thereby prepare an unfixed cerebral coronal section.
# The cerebral coronal section was stained with TTC at 37° C. for 15 min in PBS (pH 7.4) containing a triphenyltetrazolium salt (TTC) at 2% by mass, and then scanned with a scanner (CanoScan™, product of Canon Co.).
# The cerebral infarction and the volume of edema were calculated according to Swanson, R. A., et al. (J. Cereb. Blood Flow Metab. (1990) 10:290-293).
# (§2) The combined administration of the t-PA and the anti-VEGF antibody was performed as described in Example 2. The effects of the combined administration of the t-PA and the anti-VEGF antibody four hours after the onset of cerebral infarction induced by injection of the thrombus were evaluated by measuring the cerebral infarct volume, edema volume, cerebral hemorrhage volume, and motor function scale of the TTC-stained cerebral coronal section prepared 24 hours after the onset of cerebral infarction induced by injection of the thrombus.
# The cerebral infarct volume and the edema volume of the TTC-stained cerebral coronal section were calculated according to Swanson, R. A., et al. (J. Cereb. Blood Flow Metab. (1990) 10:290-293). The statistical significance was validated by ANOVA (analysis of variance), and post hoc comparisons were performed by the Tukey method.
# [2] = system: cerebral infarction rat model; test: Cerebral hemorrhage volume (hemoglobin concentration, spectrophotometer) in cerebral infarction rat model; format: in vivo, Sprague-Dawley rats; details: SU1498 20 mg/kg in DMSO single bolus with t-PA four hours after onset; 24 h after onset; vs t-PA and DMSO; P=0.005 (FIG. 5C)
# Source text: as §1, with “The formed thrombus was left to stand overnight and then cut to have a length of 1 mm Using the catheter, the thrombus was injected from the external carotid artery (ECA) 1 to the middle cerebral artery (MCA) 2 of the rat under anesthesia with halothane at 1% by mass to 1.5% by mass.” left out, “thrombus. […]” for “thrombus.”
# as §2, with “thrombus. […]” for “thrombus.”
# [3] = system: cerebral infarction rat model; test: Motor function scale (5 grades) in cerebral infarction rat model; format: in vivo, Sprague-Dawley rats; details: 24 h after onset
# [4] = system: VEGF; test: Western blotting of VEGF expression in cerebral infarction rat model; format: in vivo; details: t-PA (with control antibody) four hours after onset of cerebral infarction (FIG. 3)
# Protocol: In order to suppress or reduce concomitantly occurring cerebral hemorrhage and cerebral infarction exacerbation accompanied with the administration of the t-PA after an acute stage of cerebral infarction in human, 100 μg of rabbit anti-rat VEGF antibody IgG (RB-222, product of Lab Vision-NeoMarkers, hereinafter “anti-VEGF antibody”) was bolus administered together with the t-PA. In the control experiment, 100 μg of rabbit anti-human IgG (R5G10-048, product of OEM Concepts, hereinafter “control antibody”) was bolus administered together with the t-PA.
# Using the total cell extract as a sample, western blotting was performed according to the method described in Shimohata, T., et al. (J. Cereb. Blood Flow Metab. (2007) 27:1463-1475).
# The VEGF was detected using anti-VEGF antibody (SC-152, product of Santa Cruz Biotechnologies, dilution ratio: 1:200) as a primary antibody, and peroxidase-conjugated anti-rabbit IgG antibody (dilution ratio: 1:10,000) as a secondary antibody.
# Also, in order to confirm that the amounts of the protein applied were uniform in all the samples, β-actin was detected by allowing anti-β-actin (SC-1616, product of Santa Cruz Biotechnologies, dilution ratio: 1:2,000) and the above secondary antibody to react on the blotting membrane from which the primary and secondary antibodies had been removed. […]
# [5] = t-PA 10 mg/kg i.v. four hours after injection of thrombus, vs t-PA one hour after (FIG. 2C)
Molecule,"cerebral infarct volume ([1]; SU1498 20 mg/kg in DMSO single bolus with t-PA four hours after onset, 24 h after onset, vs t-PA and DMSO, n=6 (FIG. 5A))","edema volume ([1]; SU1498 20 mg/kg in DMSO single bolus with t-PA four hours after onset, 24 h after onset, vs t-PA and DMSO, n=6 (FIG. 5B))",cerebral hemorrhage volume (hemoglobin concentration) [2],"motor function scale (prognosis) ([3]; SU1498 20 mg/kg with t-PA four hours after onset, vs t-PA and DMSO, n=10 (FIG. 5D))","area where cerebral infarction occurred [1, 5]","hemorrhage in the area where cerebral infarction occurred [1, 5]","area where cerebral infarction occurred ([1]; t-PA 10 mg/kg i.v. one hour after injection of thrombus, section 24 h after, vs animal receiving no t-PA (FIG. 2B))",expression level of the VEGF (western blot) [4],"motor function scale (prognosis) ([3]; t-PA and control antibody four hours after onset, vs control antibody only (FIG. 4D))"
"CC(C)c1cc(/C=C(\C#N)C(=O)NCCCc2ccccc2)cc(C(C)C)c1O [SU1498, (E)-3-(3,5-diisopropyl-4-hydroxyphenyl)-2-((3-phenyl-n-propyl)amino-carbonyl)acrylonitrile]",could not reduce,could not reduce,could reduce,better in prognosis,–,–,–,–,–
"t-PA: t-PA serving as a thrombolytic agent (alteplase, product of Mitsubishi Tanabe Pharma Corporation)",–,–,–,–,enlargement,considerably observed,smaller,considerably increase,worse in prognosis
